Data taken from patent US20240166660A1, “KRAS G12C INHIBITORS” (BeiGene Switzerland GmbH, priority 2021, published 2024).

Biological target: KRAS (aa 1-169) G12C, C51S, C80L, C118S (Homo sapiens (Human), UniProt P01116, C118S/C51S/C80L/G12C)
Test: Biochemical functional assay: SOS1-mediated nucleotide exchange of GDP-loaded KRAS G12C, binding to GST-cRaf RBD, FRET readout
Conditions: 3 hrs pre-incubation with compound at 24° C., SOS1, GTPyS, inhibition of nucleotide exchange
Procedure: Biochemical Functional Assay
The KRAS (aa 1-169) G12C, C51S, C80L, C118S with a His-tag was expressed, purified and loaded with GDP in house. All protein and substrate solutions were prepared in assay buffer containing 25 mM HEPES pH7.5, 10 mM MgCl2, and 0.01% Triton X-100. Purified GDP-loaded KRAS (aa 1-169) G12C, C51S, C80L, C118S protein was pre-incubated with a serially diluted compound at 24° C. for 3 hrs. Purified SOS1 (aa 564-1049) protein, GTPyS (Sigma) and GST-cRaf RBD (aa 1-149) were then added to each well and incubated at 24° C. for additional 3 hrs. […] Following the incubation, Mab Anti-6HIS-T cryptate (Cisbio) and Mab Anti GST-XL665 (Cisbio) were added and further incubated at 24° C. for 3 hrs. The binding interaction between active GTPyS KRAS G12C and GST-cRaf RBD brings the Tb and XL665 into close proximity enabling an increased FRET signal (Ex337 nm, Em665 nm/620 nm). The inhibition percentage of nucleotide exchange reaction in presence of increasing concentrations of compounds was calculated based on the ratio of fluorescence at 665 nm to that at 620 nm detected on a BMG PHERAstar FSX instrument. The IC50 value of each compound was calculated from fitting the data to the four-parameter logistic model by Dotmatics.

Sequence of KRAS (aa 1-169) G12C, C51S, C80L, C118S (P01116 other isoform, or with tags, fused parts or gaps G12C/C51S/C80L/C118S): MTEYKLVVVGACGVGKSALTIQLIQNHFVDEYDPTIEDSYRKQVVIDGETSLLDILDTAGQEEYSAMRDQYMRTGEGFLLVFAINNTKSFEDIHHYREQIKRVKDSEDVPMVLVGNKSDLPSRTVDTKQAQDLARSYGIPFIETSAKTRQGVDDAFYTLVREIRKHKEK

SMILES	IC50
C=C(F)C(=O)N1CCN(c2nc(OC[C@@H]3CCCN3C)nc3cc(-c4c(Cl)c(C)cc5[nH]ncc45)c4c(c23)OCCC4)C[C@@H]1CC#N (single isomer, unassigned; atropisomer1) [Compound B12]	4.6 nM
C=C(F)C(=O)N1CCN(c2nc(OC[C@@H]3CCCN3C)nc3cc(-c4c(Cl)c(C)cc5[nH]ncc45)c4c(c23)OCCC4)C[C@@H]1CC#N (single isomer, unassigned; atropisomer 2) [Compound B13]	325 nM
C=CC(=O)N1CCN(c2ncnc3cc(-c4cccc5ccccc45)c4c(c23)OC(C)(C)CC4)CC1 [Compound A1, 1-(4-(2,2-dimethyl-5-(naphthalen-1-yl)-3,4-dihydro-2H-pyrano[2,3-f]quinazolin-10-yl)piperazin-1-yl)prop-2-en-1-one]	5500 nM
C=CC(=O)N1CCN(c2ncnc3cc(-c4c(O)cccc4F)c4c(c23)OC(C)(C)CC4)CC1 [Compound A2, 1-(4-(5-(2-fluoro-6-hydroxyphenyl)-2,2-dimethyl-3,4-dihydro-2H-pyrano[2,3-f]quinazolin-10-yl)piperazin-1-yl)prop-2-en-1-one]	2120 nM
C=CC(=O)N1CCN(c2ncnc3cc(-c4c(O)cccc4F)c4c(c23)OC(C)(C)CC4)C[C@@H]1CC#N [Compound A3, 2-((2S)-1-acryloyl-4-(5-(2-fluoro-6-hydroxyphenyl)-2,2-dimethyl-3,4-dihydro-2H-pyrano[2,3-f]quinazolin-10-yl)piperazin-2-yl)acetonitrile]	559 nM
C=CC(=O)N1CCN(c2ncnc3cc(-c4c(O)cccc4F)c4c(c23)OCCC4)C[C@@H]1CC#N [Compound A4, 2-((2S)-1-acryloyl-4-(5-(2-fluoro-6-hydroxyphenyl)-3,4-dihydro-2H-pyrano[2,3-f]quinazolin-10-yl)piperazin-2-yl)acetonitrile]	89.6 nM
C=CC(=O)N1CC2(CCN(c3ncnc4cc(-c5c(O)cccc5F)c5c(c34)OCCC5)CC2)C1 [Compound A5, 1-(7-(5-(2-fluoro-6-hydroxyphenyl)-3,4-dihydro-2H-pyrano[2,3-f]quinazolin-10-yl)-2,7-diazaspiro[3.5]nonan-2-yl)prop-2-en-1-one]	1690 nM
C=CC(=O)N1CC2CN(c3ncnc4cc(-c5c(O)cccc5F)c5c(c34)OC(C)(C)CC5)CC2C1 (stereo not shown) [Compound A6, 1-(5-(5-(2-fluoro-6-hydroxyphenyl)-2,2-dimethyl-3,4-dihydro-2H-pyrano[2,3-f]quinazolin-10-yl)hexahydropyrrolo[3,4-c]pyrrol-2(1H)-yl)prop-2-en-1-one]	3540 nM
C=CC(=O)N1CCN(c2ncnc3cc(-c4cccc5ccccc45)c4c(c23)OCCC4)C[C@@H]1CC#N [Compound A7, (S)-2-(1-acryloyl-4-(5-(naphthalen-1-yl)-3,4-dihydro-2H-pyrano[2,3-f]quinazolin-10-yl)piperazin-2-yl)acetonitrile]	43.1 nM
C=CC(=O)N1CCN(c2ncnc3cc(-c4cccc5ccccc45)c4c(c23)OCC=C4)C[C@@H]1CC#N [Compound A8, (S)-2-(1-acryloyl-4-(5-(naphthalen-1-yl)-2H-pyrano[2,3-f]quinazolin-10-yl)piperazin-2-yl)acetonitrile]	82.1 nM
C=CC(=O)N1CCN(c2ncnc3cc(-c4c(C)ccc5[nH]ncc45)c4c(c23)OCC=C4)C[C@@H]1CC#N [Compound A9, 2-((2S)-1-acryloyl-4-(5-(5-methyl-1H-indazol-4-yl)-2H-pyrano[2,3-f]quinazolin-10-yl)piperazin-2-yl)acetonitrile]	218 nM
C=CC(=O)N1CCN(c2ncnc3cc(-c4c(C)ccc5[nH]ncc45)c4c(c23)OCCC4)C[C@@H]1CC#N [Compound A10, 2-((2S)-1-acryloyl-4-(5-(5-methyl-1H-indazol-4-yl)-3,4-dihydro-2H-pyrano[2,3-f]quinazolin-10-yl)piperazin-2-yl)acetonitrile]	598 nM
C=CC(=O)N1CCN(c2ncnc3cc(-c4cc(C)cc5[nH]ncc45)c4c(c23)OCCC4)C[C@@H]1CC#N [Compound A11, (S)-2-(1-acryloyl-4-(5-(6-methyl-1H-indazol-4-yl)-3,4-dihydro-2H-pyrano[2,3-f]quinazolin-10-yl)piperazin-2-yl)acetonitrile]	799 nM
C=CC(=O)N1CCN(c2ncnc3cc(-c4cccc5ccccc45)c4c(c23)OCCC4)CC1 [Compound A12, 1-(4-(5-(naphthalen-1-yl)-3,4-dihydro-2H-pyrano[2,3-f]quinazolin-10-yl)piperazin-1-yl)prop-2-en-1-one]	1660 nM
C=CC(=O)N1CCN(c2ncnc3cc(-c4c(C)ccc5[nH]ncc45)c4c(c23)OCCC4)CC1 [Compound A13, 1-(4-(5-(5-methyl-1H-indazol-4-yl)-3,4-dihydro-2H-pyrano[2,3-f]quinazolin-10-yl)piperazin-1-yl)prop-2-en-1-one]	3310 nM
C=CC(=O)N1CCN(c2ncnc3cc(-c4cc(F)cc5[nH]ncc45)c4c(c23)OCCC4)C[C@@H]1CC#N [Compound A16, (S)-2-(1-acryloyl-4-(5-(6-fluoro-1H-indazol-4-yl)-3,4-dihydro-2H-pyrano[2,3-f]quinazolin-10-yl)piperazin-2-yl)acetonitrile]	89.8 nM
C=CC(=O)N1CCN(c2ncnc3cc(-c4c(Cl)c(F)cc5[nH]ncc45)c4c(c23)OCCC4)C[C@@H]1CC#N [Compound A17, 2-((2S)-1-acryloyl-4-(5-(5-chloro-6-fluoro-1H-indazol-4-yl)-3,4-dihydro-2H-pyrano[2,3-f]quinazolin-10-yl)piperazin-2-yl)acetonitrile]	31.7 nM
C=CC(=O)N1CCN(c2ncnc3cc(-c4cc(C(F)(F)F)cc5[nH]ncc45)c4c(c23)OCCC4)C[C@@H]1CC#N [Compound A18, (S)-2-(1-acryloyl-4-(5-(6-(trifluoromethyl)-1H-indazol-4-yl)-3,4-dihydro-2H-pyrano[2,3-f]quinazolin-10-yl)piperazin-2-yl)acetonitrile]	37.8 nM
C=CC(=O)N1CCN(c2ncnc3cc(-c4c(Cl)c(F)cc5[nH]ncc45)c4c(c23)OCCC4)CC1 [Compound A19, 1-(4-(5-(5-chloro-6-fluoro-1H-indazol-4-yl)-3,4-dihydro-2H-pyrano[2,3-f]quinazolin-10-yl)piperazin-1-yl)prop-2-en-1-one]	691 nM
C=CC(=O)N1CCN(c2ncnc3cc(-c4c(Cl)c(C)cc5[nH]ncc45)c4c(c23)OCCC4)C[C@@H]1CC#N [Compound A20, 2-((2S)-1-acryloyl-4-(5-(5-chloro-6-methyl-1H-indazol-4-yl)-3,4-dihydro-2H-pyrano[2,3-f]quinazolin-10-yl)piperazin-2-yl)acetonitrile]	14.9 nM
C=CC(=O)N1CCN(c2ncnc3cc(-c4ccc(O)c5ccccc45)c4c(c23)OCCC4)C[C@@H]1CC#N [Compound A21, (S)-2-(1-acryloyl-4-(5-(4-hydroxynaphthalen-1-yl)-3,4-dihydro-2H-pyrano[2,3-f]quinazolin-10-yl)piperazin-2-yl)acetonitrile]	5 nM
C=CC(=O)N1CCN(c2ncnc3cc(-c4cnc(N)cc4C(F)(F)F)c4c(c23)OCCC4)C[C@@H]1CC#N [Compound A22, (S)-2-(1-acryloyl-4-(5-(6-amino-4-(trifluoromethyl)pyridin-3-yl)-3,4-dihydro-2H-pyrano[2,3-f]quinazolin-10-yl)piperazin-2-yl)acetonitrile]	256 nM
